Measurements reported in patent US9629850B2, “Combination of MEK inhibitors and selective inhibitors of Aurora A kinase” (priority 2011, dated 2017).
Like-named read-outs stand apart in the source and are kept apart here.

How the values were obtained:
A375 [1] = test: Cells with greater than 4N DNA by flow cytometry, A375
Description: (§1) A2780, A375, PC-3 and SK-MEL-2 cells were seeded at 2×10^4 cells/ml and grown on 6 well cell culture dishes overnight at 37° C. with 5% CO2. […] At the relevant time points cells were harvested with trypsin ethylenediaminetetraacetic acid (EDTA) 1× (Gibco/Invitrogen [Carlsbad, Calif., USA]), washed once with phosphate-buffered saline (PBS), fixed in 70% ethanol and stored at −20° C. for at least 24 hours. The cells were washed once more in PBS, then resuspended in 50 μg/ml propidium iodide (Invitrogen, [Carlsbad, Calif., USA]) and 30 μg/ml ribonuclease (RNAse) A (Sigma [St Louis, Mo., USA]) in PBS and incubated for 30 minutes at room temperature protected from light. Cell cycle distributions were determined by measuring deoxyribonucleic acid (DNA) content using flow cytometry on a FACS Canto II flow cytometer (Becton Dickinson [San Jose, Calif., USA]) and samples were analyzed using [sequence] software (Becton Dickinson [San Jose, Calif., USA]).

A2780 cells = test: Quantification of sub-diploid cells by flow cytometry; settings: A2780, 96 hours, single agents: TAK-733 50 nM or 200 nM, MLN8237 20 nM (50 nM MLN8237 sample was the exception), FIG. 2A
Description: Sub-diploid cells were gated as those with a lower level of propidium iodide fluorescence than cells with 2N DNA content.
as §1

A2780 [2] = test: Cells with greater than 4N DNA by flow cytometry, A2780
Description: as §1

PC3 = test: Cells with greater than 4N DNA by flow cytometry, PC3
Description: as §1

[3] = system: NCI-H23 Non Small Cell Lung Carcinoma Xenografts; test: Anti-tumor activity in female nude mice bearing NCI-H23 xenografts; settings: for TGI: Day 99; for TFS (tumor-free survivors): Day 135, n=8
Description: MLN8237 was prepared in 10% hydroxypropyl-beta-cyclodextrin (HP-β-CD) (Sigma, St. Louis, Mo., USA)+1% NaHCO3 (Sigma, St. Louis, Mo., USA) every 5 days and stored at approximately 25° C. in the dark.
5.0×10^6 NCI-H23 cells/animal (0.1 ml injection volume) were implanted SC into the right flank of Balb/c nude mice.
Experimental Design: 7-9 week old female Balb/c nude mice were inoculated subcutaneously in the flank (cell suspension) with 5.0×10^6 NCI-H23 cells. Tumor growth was monitored with vernier calipers. The mean tumor volume was calculated using the formula V=W^2×L/2. When the mean tumor volume (MTV) reached approximately 105 mm^3, the animals were randomized into 8 treatment groups (n=8/group). […] Tumor growth and body weight were measured twice per week. Tumor growth inhibition and body weight change were calculated on Day 99 of treatment.
Antitumor activity was determined by calculating the percent TGI ([mean tumor volume of the control group−mean tumor volume of a treated group]/mean tumor volume of the control group) on Day 99. Treatment started on Day 1 for 21 days. […] The use of Day 99 allows us to evaluate tumor response and statistically compare the ΔAUC for each group over the regrowth period.
Additional endpoints used to evaluate efficacy were: complete and partial tumor response CR and PR), and the number of tumor-free survivors (TFS) at the end of the study.
Statistical Analysis: Statistical analysis was performed with a linear mixed effects regression model. This model takes into account the differences in trends of tumor growth between control and treated samples. Differences among mice were treated as random effects, and a compound symmetry covariance structure was used to model the variability between repeated tumor measurements on each mouse. Treatment comparisons were performed by using the fitted curves from the model to calculate the changes in the areas under the tumor volume-versus-time curves (ΔAUCs). The significance of the ΔAUC was assessed using permutation testing. P-values <0.05 were considered significant.
The change in AUC relative to the control was calculated for both single agent treatment groups as well as the combination group.

[4] = system: Panc-1 Human Pancreatic Carcinoma Xenografts; test: Antitumor activity in female nude mice bearing Panc-1 xenografts; settings: MLN8237 30 mg/kg QD for 21 days (oral per title; b268 prints SC); Day 63; p<0.001 vs vehicle
Description: Experimental Design: Low passage (passage TC08) Panc-1 cells (ATCC, Manassas, Va., USA) were grown in Roswell Park Memorial Institute (RPMI)-1640 (ATCC, Manassas, Va., USA) 10% Fetal Bovine Serum (PAA Laboratories PTY LTD, Morningside, QLD, Australia) and supplied at a concentration of 5.0×10^7 cells/mLl in Dulbecco's phosphate-buffered saline (DPBS) (Invitrogen-Gibco, Grand Island, N.Y., USA). Cells were mixed 1:1 with Matrigel support (BD Biosciences, Bedford, Mass., USA) and 5.0×10^6 Panc-1 cells/animal (0.2 mL injection volume) were implanted SC into the right flank of female Balb/c nude mice.
Tumor growth was monitored twice weekly using calipers and the mean tumor volume was calculated using the formula (0.5×[length×width^2]). […] Tumor size and body weight were measured twice weekly and the study was terminated on Day 63 when tumors in the control group reached approximately 1127.8 mm^3. Tumor volumes and BW of animals in the combination treatment group were monitored up to Day 111.
Antitumor activity was determined by calculating the percent TGI ([mean tumor volume of the control group—mean tumor volume of a treated group]/mean tumor volume of the control group) on Day 63. Treatment started on Day 1 and lasted through Day 21. Maximum percent BWL was evaluated during the treatment period (Day 1-Day 21). […]

A2780 [5] = test: BrdU proliferation assay, A2780; settings: Homo sapiens, A2780, 96 h
Description: (§2) A2780, A375, PC-3, and SK-MeI-2 human tumor cell lines were seeded at 2.0×10^3, 1.0×10^3, 4.0×10^3 and 2.0×10^3 cells per well, respectively, in 80 μL of the appropriate cell culture growth media. Plating densities were chosen to ensure optimal linear growth over 120 hours. After 20 hours, 10 μL of each compound was added to the cells in a matrix with dose responses of both agents. […] Each matrix was generated in triplicate with each replicate on a separate plate.
(§3) Cell proliferation of each cell line was measured using the cell proliferation enzyme-linked immunosorbent assay (ELISA), 5-bromo-2-deoxyuridine (BrdU) colorimetric kit according to the manufacturer's instructions (Roche [Mannheim, Germany]). The assay measures cell proliferation by quantifying BrdU incorporation into replicating deoxyribonucleic acid (DNA). Briefly, each well was incubated with 10 μL of BrdU labeling reagent for 2 hours at 37° C. in a humidified cell culture chamber. After aspiration of the labeling media, the plates were wrapped in foil and kept at 4° C. to assay at a future time. The cells were fixed and denatured by adding 100 µL of ethanol to each well and incubated for 30 minutes at room temperature. The ethanol was aspirated and 50 μl of blocking reagent (Roche [Mannheim, Germany]) was added to the cells and incubated for 30 minutes. 100 μL of peroxidase-conjugated anti BrdU antibody ([anti-BrdU-POD]; 1:100 in antibody dilution buffer) was added to the cells. The cells were incubated with the antibody for 120 minutes at room temperature. The cells were then washed 2× with 150 μL of wash buffer per well and 100 μL of tetramethyl benzidine was then added. The cells were incubated for 15 to 30 minutes at room temperature prior to spectrophotometric analysis. A SpectraMax Plus 384 plate reader (Molecular Devices [Sunny Vale Calif., USA]) or WALLAC 1420 Workstation (Perkin Elmer [Turku, Finland]) were used to measure the absorbance of each well at 395 or 405 nm, respectively, depending on the machine used. The A2780 and A375 cell lines were measured using the SpectraMax Plus at 395 nm, while the PC-3 and SK-Mel-2 cell lines were measured using the WALLAC 1420 Workstation at 405 nm. Analysis of the data was performed using GraphPad Prism 5.0.

PC-3 = test: BrdU proliferation assay, PC-3; settings: Homo sapiens, PC-3, 96 h
Description: as §2, §3

SKMEL-2 [6] = test: Cells with greater than 4N DNA by flow cytometry, SKMEL-2
Description: as §1

SKMEL-2 [7] = test: BrdU proliferation assay, SKMEL-2; settings: Homo sapiens, SK-MEL-2, 96 h
Description: as §2, §3

A375 [8] = test: BrdU proliferation assay, A375; settings: Homo sapiens, A-375, 96 h
Description: as §2, §3

[9] = MLN8237 30 mg/kg PO for 21 days, mice of 8

With `COc1cc(Nc2ncc3c(n2)-c2ccc(Cl)cc2C(c2c(F)cccc2OC)=NC3)ccc1C(=O)[O-].O.[Na+]` [MLN8237] the “Percentage of cells with greater than 4N DNA” value (“Percentage of cells” below) (A375 [1]; A375, 24 Hr, DMSO 0.9) was 16%, the “Percentage of cells” value (A375 [1]; A375, 48 Hr, DMSO 1.4) was 18.6% and the “percentage of sub-diploid cells relative to DMSO” value (A2780 cells) was “neither TAK-733 nor MLN8237 caused appreciable increases”. For the same compound, the “Percentage of cells” value (A2780 [2]; A2780, 24 Hr, DMSO 1.7) was 9.6%, the “Percentage of cells” value (A2780 [2]; A2780, 48 Hr, DMSO 2.2) was 13% and the “Percentage of cells” value (PC3; PC3, 24 Hr, DMSO 10.5) was 21%. For the same compound, the “Percentage of cells” value (PC3; PC3, 48 Hr, DMSO 10.7) was 30.5%, the TGI ([3]; MLN8237 20 mg/kg PO QD for 21 days, p>0.05 vs control) was 43.4% and the “TFS (tumor-free survivors)” value ([3]; MLN8237 20 mg/kg PO QD for 21 days) was 2. For the same compound, the “CR (complete tumor response)” value ([3]; MLN8237 20 mg/kg PO QD for 21 days, mice of 8) was 2 of 8, the TGI ([3]; MLN8237 30 mg/kg PO for 21 days, p<0.05 vs vehicle) was 73.3% and the “TFS (tumor-free survivors)” value ([3]; MLN8237 30 mg/kg PO for 21 days) was 2. For the same compound, the “CR (complete tumor response)” value [3, 9] was 4 of 8, the “PR (partial tumor response)” value [3, 9] was 4 of 8 and the TGI [4] was −6.4%. It also gave an IC50 (A2780 [5]; read-out: MLN8237 IC50, A2780, TAK-733 0.0 nM) of 43 nM, an IC50 (A2780 [5]; read-out: MLN8237 IC50, A2780, TAK-733 0.64 nM) of 34 nM and an IC50 (A2780 [5]; read-out: MLN8237 IC50, A2780, TAK-733 3.2 nM) of 29 nM. For the same compound, the IC50 (A2780 [5]; read-out: MLN8237 IC50, A2780, TAK-733 16 nM) was 19 nM, the IC50 (A2780 [5]; read-out: MLN8237 IC50, A2780, TAK-733 80 nM) was 11 nM and the IC90 (A2780 [5]; read-out: MLN8237 IC90, A2780, TAK-733 0.0 nM) was > 5000 nM. The IC90 (A2780 [5]; read-out: MLN8237 IC90, A2780, TAK-733 0.64 nM) was > 5000 nM, the IC90 (A2780 [5]; read-out: MLN8237 IC90, A2780, TAK-733 3.2 nM) was 288 nM and the IC90 (A2780 [5]; read-out: MLN8237 IC90, A2780, TAK-733 16 nM) was 28 nM. For the same compound, the IC90 (A2780 [5]; read-out: MLN8237 IC90, A2780, TAK-733 80 nM) was 46 nM, the IC50 (PC-3; read-out: MLN8237 IC50, PC-3, TAK-733 0.0 nM) was 134 nM and the IC50 (PC-3; read-out: MLN8237 IC50, PC-3, TAK-733 16 nM) was 84 nM. It also gave an IC50 (PC-3; read-out: MLN8237 IC50, PC-3, TAK-733 80 nM) of 93 nM, an IC50 (PC-3; read-out: MLN8237 IC50, PC-3, TAK-733 400 nM) of 100 nM and an IC50 (PC-3; read-out: MLN8237 IC50, PC-3, TAK-733 2000 nM) of 74 nM. For the same compound, the IC90 (PC-3; read-out: MLN8237 IC90, PC-3, TAK-733 0.0 nM) was > 5000 nM, the IC90 (PC-3; read-out: MLN8237 IC90, PC-3, TAK-733 16 nM) was > 5000 nM and the IC90 (PC-3; read-out: MLN8237 IC90, PC-3, TAK-733 80 nM) was 1060 nM. For the same compound, the IC90 (PC-3; read-out: MLN8237 IC90, PC-3, TAK-733 400 nM) was 890 nM, the IC90 (PC-3; read-out: MLN8237 IC90, PC-3, TAK-733 2000 nM) was 569 nM and the “Percentage of cells” value (SKMEL-2 [6]; SKMEL-2, 24 Hr, DMSO 3.1) was 14.5%. For the same compound, the “Percentage of cells” value (SKMEL-2 [6]; SKMEL-2, 48 Hr, DMSO 2.7) was 36.4%, the IC50 (SKMEL-2 [7]; read-out: MLN8237 IC50, SKMEL-2, TAK-733 0.0 nM) was 67 nM and the IC50 (SKMEL-2 [7]; read-out: MLN8237 IC50, SKMEL-2, TAK-733 0.01 nM) was 66 nM. For the same compound, the IC50 (SKMEL-2 [7]; read-out: MLN8237 IC50, SKMEL-2, TAK-733 0.1 nM) was 54 nM, the IC50 (SKMEL-2 [7]; read-out: MLN8237 IC50, SKMEL-2, TAK-733 1 nM) was 48 nM and the IC50 (SKMEL-2 [7]; read-out: MLN8237 IC50, SKMEL-2, TAK-733 10 nM) was 16 nM. The IC90 (SKMEL-2 [7]; read-out: MLN8237 IC90, SKMEL-2, TAK-733 0.0 nM) was > 5000 nM, the IC90 (SKMEL-2 [7]; read-out: MLN8237 IC90, SKMEL-2, TAK-733 0.01 nM) was > 5000 nM and the IC90 (SKMEL-2 [7]; read-out: MLN8237 IC90, SKMEL-2, TAK-733 0.1 nM) was > 5000 nM. For the same compound, the IC90 (SKMEL-2 [7]; read-out: MLN8237 IC90, SKMEL-2, TAK-733 1 nM) was > 5000 nM, the IC90 (SKMEL-2 [7]; read-out: MLN8237 IC90, SKMEL-2, TAK-733 10 nM) was 309 nM and the IC50 (A375 [8]; read-out: MLN8237 IC50, A375, TAK-733 0.0 nM) was 59 nM. For the same compound, the IC50 (A375 [8]; read-out: MLN8237 IC50, A375, TAK-733 0.0001 nM) was 73 nM, the IC50 (A375 [8]; read-out: MLN8237 IC50, A375, TAK-733 0.001 nM) was 63 nM and the IC50 (A375 [8]; read-out: MLN8237 IC50, A375, TAK-733 0.01 nM) was 58 nM. It also gave an IC50 (A375 [8]; read-out: MLN8237 IC50, A375, TAK-733 0.1 nM) of 62 nM, an IC50 (A375 [8]; read-out: MLN8237 IC50, A375, TAK-733 1 nM) of 65 nM and an IC90 (A375 [8]; read-out: MLN8237 IC90, A375, TAK-733 0.0 nM) of 530 nM. The IC90 (A375 [8]; read-out: MLN8237 IC90, A375, TAK-733 0.0001 nM) was 554 nM, the IC90 (A375 [8]; read-out: MLN8237 IC90, A375, TAK-733 0.001 nM) was 408 nM and the IC90 (A375 [8]; read-out: MLN8237 IC90, A375, TAK-733 0.01 nM) was 882 nM. For the same compound, the IC90 (A375 [8]; read-out: MLN8237 IC90, A375, TAK-733 0.1 nM) was 325 nM and the IC90 (A375 [8]; read-out: MLN8237 IC90, A375, TAK-733 1 nM) was > 5000 nM.
